The assay has as its system Shank2^−/− mice. In words: Repetitive behaviors (jumping, grooming) in home cage. Format: in vivo, mouse. As to conditions: 30 mg/kg i.p.; for Grooming / Jumping: Shank2^−/− mice, 2 hours prior to testing; for Repetitive behaviors: wild-type mice. The protocol: The injection was performed 2 hours before (Shank2^−/− mice and wild-type littermates), or 3 hours before (Tbr1^+/− mice and wild-type littermates) behavioral assays at the discretion of the facility. A within-subjects design was designed with a one week washout period (FIG. 8), and divided animals into two groups, vehicle-first and clioquinol-first group, to rule out carryover effects. Each mouse received a single acute dose of vehicle or clioquinol, and underwent a single behavioral task, one task per week. Testing was conducted in dedicated behavioral test rooms during the light phase (three-chamber test) and the dark phase (repetitive behaviors and open field test). Shank2^−/− mice and their wild-type littermates in their home cages without bedding were used to measure times spent in repetitive behaviors including jumping and grooming. In this case, jumping is defined as mice planting rear feet and standing up by lifting front feet along the cage, in other words, the cage corner or a side wall, and jumping up such that both of the rear feed are separated from the bottom surface. Meanwhile, grooming is defined as stroking or scratching the face or the body with two front feet or licking a part of the body. The experiments and analysis were performed independently in a blind manner.

Each structure is given as a SMILES string.

In the case of `Oc1c(I)cc(Cl)c2cccnc12` [clioquinol, 5-Chloro-7-Iodo-8-Hydroxyquinoline], the Grooming entry is given as “not influenced”, the Jumping entry is “not influenced” and the Repetitive behaviors entry was “did not affect repetitive behaviors”. In addition, for the setting “listed as CQ”, the Grooming result is “has no effect on grooming” and the Jumping result was “fails to improve jumping”. Where the note is “listed as Clioquinol”, the Grooming entry is recorded as “had no effect”, the Jumping result was “had no effect” and the Repetitive behaviors entry was “had no effect”.
